# Results: US9693971B2, “Compositions for alleviating gastrointestinal tract disorders or associated systemic disorders in ruminants and camelids” (FREIE UNIVERSITÄT BERLIN, priority 2012, dated 2017)
# “Also recorded” adds a separate entry of the source.
# Key:
# TRPV4 = TRPV4 (Homo sapiens, UniProt Q9HBA0); settings: cited from earlier work
# TRPA1 = TRPA1 (Homo sapiens, UniProt O75762); settings: cited from earlier work
# TRPV2 = molecular target: T1, TRPV2 (Homo sapiens, UniProt Q9Y5S1); settings: cited from earlier work
# T1 sequence (Q9Y5S1 1-764): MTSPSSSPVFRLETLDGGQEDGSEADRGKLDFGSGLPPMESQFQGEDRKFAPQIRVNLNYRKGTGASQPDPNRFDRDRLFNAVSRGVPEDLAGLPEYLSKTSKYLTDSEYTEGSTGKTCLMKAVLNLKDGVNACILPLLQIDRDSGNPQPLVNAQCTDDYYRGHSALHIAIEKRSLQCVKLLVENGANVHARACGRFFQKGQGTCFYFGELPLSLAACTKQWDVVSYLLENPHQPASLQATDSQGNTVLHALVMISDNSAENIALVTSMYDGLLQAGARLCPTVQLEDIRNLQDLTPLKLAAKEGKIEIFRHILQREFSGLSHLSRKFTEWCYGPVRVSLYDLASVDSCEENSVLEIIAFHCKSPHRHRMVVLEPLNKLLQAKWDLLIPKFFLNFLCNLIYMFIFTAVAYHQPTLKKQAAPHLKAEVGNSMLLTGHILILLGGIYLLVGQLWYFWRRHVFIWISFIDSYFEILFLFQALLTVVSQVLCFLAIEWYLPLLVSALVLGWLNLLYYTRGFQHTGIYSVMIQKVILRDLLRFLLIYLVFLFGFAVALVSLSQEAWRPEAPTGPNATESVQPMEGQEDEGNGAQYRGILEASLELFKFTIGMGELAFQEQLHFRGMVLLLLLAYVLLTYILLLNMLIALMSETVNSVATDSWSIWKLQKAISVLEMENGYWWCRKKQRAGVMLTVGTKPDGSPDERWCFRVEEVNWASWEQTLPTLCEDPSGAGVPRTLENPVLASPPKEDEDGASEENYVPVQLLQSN
# [1] = tested on: rumen epithelium from cattle; test: Ussing chamber: ammonium-induced transepithelial short-circuit current (Isc) across isolated rumen epithelium; format: cell-based; settings: for influence on ammonium-induced conductivity / transport across rumen epithelium (profile in words): no concentration stated
# From the text: The experiments on the intact epithelium take place as already specified (Abdoun, Stumpff et al. 2005; Abdoun, Stumpff et al. 2010). The measuring techniques used are a combination of the Ussing chamber technique developed by Ussing (1949) and the microelectrode technique.
# When examining epithelial transport processes with the Ussing chamber, the epithelium is installed in a special chamber, which makes it possible to rinse the two sides of the epithelium (apical: food side; basolateral: blood side) separately of each other with buffer solutions of various composition, wherein the electrophysiological parameters (current and voltage) across the epithelium are traced. Hereby, it is made possible to differentiate between the transport of an uncharged substance (e.g. ammonia, NH3) and the transport of a charged substance (e.g. ammonium, NH4^+), as the former takes place without a change in current and voltage, whereas the latter is coupled with the transfer of a charge and thus changes the transepithelial electrical parameters.
# With the help of a special modification, the reaction of individual epithelia to solution changes, taking place very rapidly and smoothly, is also examined over time. Hereby, for example, the reproducibility of a pharmacological intervention on the same piece of epithelium can very well be examined. This modification of the classic Ussing chamber technique is particularly, albeit not exclusively, used for the comparative “screening” of the various substances which are subject of an aspect of the present invention.
# The epithelium is horizontally clamped into a modified Ussing chamber, wherein the mucosal side faces upwards. The chamber made of plexi-glass has a cross-section surface of 0.79 cm^2, which is corrected to 1 cm^2. As a protection against damages on the edges of the epithelium, “edge damage”, a silicone ring is in each case placed between chamber and epithelium. The two resulting chambers (mucosal and serosal) are each supplied by their own perfusion system (4-channel-stand-pump, Ismatec SA). With three-way valves, an independent solution change between altogether eight solutions is possible in the two chambers. During storage, the solutions are gassed in their containers with 100% O2. To warm the solutions up to 37° C., the thin perfusion tubes run through a heat exchanger pump. The suction device (Masterflex R/S, Cole Parmer Instrument Company) present in both chambers guarantees a rapid and safe change of solution. In order to ensure that there are no solution change artefacts when adding agonists and antagonists, the substances are pipetted into the respective solution, wherein the gassing ensures a rapid mixing. In this way, pressure fluctuations or an interruption of the flow through the chamber can be safely precluded.
# As in the conventional Ussing chamber technique, there are in each case two electrodes near the tissue and two electrodes distant from the tissue for measuring the transepithelial potential difference and the transepithelial current (Isc). The connections between the Ag/AgCl electrodes, which are filled with 3 M KCl, are established via agar bridges. Just as in Strecker (Strecker 2011), the measuring chamber is connected to a “voltage clamp” installation (Ussing chamber unit) in assembly with a microelectrode amplifier (both Biomedical Instruments Co., Germering). A micromanipulator (MF 500) installed above the measuring chamber offers the possibility to move the microelectrode in fine μm steps. Additionally, a microscope as well as a cold-light source are located above the apparatus.
# Menthol (Sigma-Aldrich) was dissolved at a concentration of 1 mol·l^−1 in ethanol and pipetted into the used test solution containing ammonium. For an end concentration of 1 mmol·l^−1, 20 μl of this stock solution was added to 20 ml test solution; for 200 μmol·l^−1 correspondingly less. In control experiments, corresponding amounts of pure ethanol were added to the test solution.
# E. coli = settings: 0.3% menthol in feed dry mass (8 g menthol/day) for 30 days, bulls; cited from earlier work
# TRPM8 = TRPM8 (Homo sapiens, UniProt Q7Z2W7); settings: cited from earlier work
# Sequence of TRPM8 (Q7Z2W7 whole entry, species assumed): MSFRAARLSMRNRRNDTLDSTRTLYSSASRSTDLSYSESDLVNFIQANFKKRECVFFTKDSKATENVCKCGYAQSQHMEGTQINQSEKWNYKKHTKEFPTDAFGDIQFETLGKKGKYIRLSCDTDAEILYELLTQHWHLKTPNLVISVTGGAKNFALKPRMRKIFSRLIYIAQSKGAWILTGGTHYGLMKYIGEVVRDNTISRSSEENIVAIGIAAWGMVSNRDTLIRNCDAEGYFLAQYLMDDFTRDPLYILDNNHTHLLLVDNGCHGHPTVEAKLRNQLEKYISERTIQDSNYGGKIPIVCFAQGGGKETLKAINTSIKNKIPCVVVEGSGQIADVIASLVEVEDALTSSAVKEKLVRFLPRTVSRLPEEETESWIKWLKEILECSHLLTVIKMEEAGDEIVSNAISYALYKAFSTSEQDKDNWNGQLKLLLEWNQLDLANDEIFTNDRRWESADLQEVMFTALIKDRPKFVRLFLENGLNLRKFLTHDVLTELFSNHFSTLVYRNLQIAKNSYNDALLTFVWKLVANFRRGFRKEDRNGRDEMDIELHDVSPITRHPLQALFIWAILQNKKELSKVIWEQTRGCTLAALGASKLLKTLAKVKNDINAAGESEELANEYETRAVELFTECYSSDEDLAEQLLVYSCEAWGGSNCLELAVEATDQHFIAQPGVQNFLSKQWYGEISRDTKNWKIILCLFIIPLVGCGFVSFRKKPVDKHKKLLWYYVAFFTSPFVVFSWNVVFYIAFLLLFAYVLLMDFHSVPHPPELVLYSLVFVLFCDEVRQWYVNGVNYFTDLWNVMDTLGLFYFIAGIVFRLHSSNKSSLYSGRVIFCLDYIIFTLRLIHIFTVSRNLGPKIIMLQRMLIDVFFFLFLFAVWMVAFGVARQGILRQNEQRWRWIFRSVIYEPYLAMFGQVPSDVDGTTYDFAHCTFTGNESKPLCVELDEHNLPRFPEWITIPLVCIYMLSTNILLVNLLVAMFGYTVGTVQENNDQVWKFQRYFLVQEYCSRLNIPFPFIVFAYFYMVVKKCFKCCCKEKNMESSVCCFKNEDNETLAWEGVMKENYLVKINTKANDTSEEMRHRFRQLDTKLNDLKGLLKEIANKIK
# rumen epithelium [2] = test: Ca^45 calcium flux across rumen epithelium in conventional Ussing chambers, menthol vs control group; format: cell-based; settings: menthol 200 μM or 1 mM; N=4 cattle, n=85 epithelia; FIG. 10A
# From the text: (§1) Supplementary, the transport rate of a substance across the epithelium is quantitatively determined by examining the buffer solution prior to and after a defined test period (in conjunction with the methods of an aspect of the present invention for determining the ammonia flux by means of an ammonia electrode (Thermo Scientific Orion 9512HPBNWP, Thermo Fisher Scientific Inc., Waltham, Mass. 02454) while at the same time registering shifts in the solution pH, or measuring the calcium flux with radioactive isotopes).
# (§2) For a direct verification of a modulation of the calcium transport across the rumen epithelium, a radioactive calcium isotope (Ca^45) was employed in further experiments. The measurements were carried out in conventional Ussing chambers without continuous perfusion. Herein, tissue of N=4 (cattle) was collected and n=85 epithelia were used therein.
# (§3) The isotope was employed on the mucosal side (corresponding to the side on which the food is) and the emergence on the blood side was measured.
# Approach: Three groups were formed. One group remained untreated as control. The other two groups were each treated with menthol at a dose of 200 μM or 1 mM, respectively, and compared to the control (100%).
# TRPV3 = molecular target: T2, TRPV3 (Homo sapiens, UniProt Q8NET8); settings: cited from earlier work
# T2 sequence (Q8NET8 1-790): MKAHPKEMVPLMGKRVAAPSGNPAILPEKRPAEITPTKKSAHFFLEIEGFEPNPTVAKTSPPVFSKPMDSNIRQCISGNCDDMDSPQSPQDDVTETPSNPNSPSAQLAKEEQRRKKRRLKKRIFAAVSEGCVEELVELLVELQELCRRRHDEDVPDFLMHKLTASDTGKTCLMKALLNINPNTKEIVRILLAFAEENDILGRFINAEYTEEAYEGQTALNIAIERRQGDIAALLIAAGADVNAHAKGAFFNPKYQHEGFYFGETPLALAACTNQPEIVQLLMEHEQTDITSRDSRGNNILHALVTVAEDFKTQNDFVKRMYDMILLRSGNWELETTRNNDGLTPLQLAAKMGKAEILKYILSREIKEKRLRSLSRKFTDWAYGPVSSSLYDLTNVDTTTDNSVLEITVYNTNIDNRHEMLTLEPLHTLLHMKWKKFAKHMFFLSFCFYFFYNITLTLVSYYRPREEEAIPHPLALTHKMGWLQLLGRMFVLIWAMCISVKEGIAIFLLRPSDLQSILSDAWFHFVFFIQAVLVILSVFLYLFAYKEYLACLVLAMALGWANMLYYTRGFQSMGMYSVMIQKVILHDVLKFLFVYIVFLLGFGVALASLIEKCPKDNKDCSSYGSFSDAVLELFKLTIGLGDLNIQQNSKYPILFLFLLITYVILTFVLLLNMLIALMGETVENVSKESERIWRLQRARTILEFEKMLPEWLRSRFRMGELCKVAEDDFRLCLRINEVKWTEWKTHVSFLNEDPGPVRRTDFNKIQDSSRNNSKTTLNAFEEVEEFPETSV
# [3] = corresponding to 30 g/60 l; cited from earlier work
# bacteria flora = settings: 1.5 mM thymol (corresponding to 14 g/60 l ruminal fluid); cited from earlier work
# rumen epithelium [4] = test: Ca^45 calcium flux across rumen epithelium in conventional Ussing chambers, thymol vs basal value; format: cell-based, one cow, one sheep; settings: after adding thymol; N=2, n=44 epithelia; FIG. 10B
# From the text: as §1, §2, §3
# Approach: First, a basal value of the Ca flux across the rumen epithelium was detected. Then a substance was added. The subsequently measured Ca flux was compared to the starting value (100%). […]
# [5] = tested on: bacteria flora in the ruminal fluid; settings: in vitro, thymol 3-12 g/60 l; cited from earlier work
# Sequence of TRPA1 (O75762 whole entry, species assumed): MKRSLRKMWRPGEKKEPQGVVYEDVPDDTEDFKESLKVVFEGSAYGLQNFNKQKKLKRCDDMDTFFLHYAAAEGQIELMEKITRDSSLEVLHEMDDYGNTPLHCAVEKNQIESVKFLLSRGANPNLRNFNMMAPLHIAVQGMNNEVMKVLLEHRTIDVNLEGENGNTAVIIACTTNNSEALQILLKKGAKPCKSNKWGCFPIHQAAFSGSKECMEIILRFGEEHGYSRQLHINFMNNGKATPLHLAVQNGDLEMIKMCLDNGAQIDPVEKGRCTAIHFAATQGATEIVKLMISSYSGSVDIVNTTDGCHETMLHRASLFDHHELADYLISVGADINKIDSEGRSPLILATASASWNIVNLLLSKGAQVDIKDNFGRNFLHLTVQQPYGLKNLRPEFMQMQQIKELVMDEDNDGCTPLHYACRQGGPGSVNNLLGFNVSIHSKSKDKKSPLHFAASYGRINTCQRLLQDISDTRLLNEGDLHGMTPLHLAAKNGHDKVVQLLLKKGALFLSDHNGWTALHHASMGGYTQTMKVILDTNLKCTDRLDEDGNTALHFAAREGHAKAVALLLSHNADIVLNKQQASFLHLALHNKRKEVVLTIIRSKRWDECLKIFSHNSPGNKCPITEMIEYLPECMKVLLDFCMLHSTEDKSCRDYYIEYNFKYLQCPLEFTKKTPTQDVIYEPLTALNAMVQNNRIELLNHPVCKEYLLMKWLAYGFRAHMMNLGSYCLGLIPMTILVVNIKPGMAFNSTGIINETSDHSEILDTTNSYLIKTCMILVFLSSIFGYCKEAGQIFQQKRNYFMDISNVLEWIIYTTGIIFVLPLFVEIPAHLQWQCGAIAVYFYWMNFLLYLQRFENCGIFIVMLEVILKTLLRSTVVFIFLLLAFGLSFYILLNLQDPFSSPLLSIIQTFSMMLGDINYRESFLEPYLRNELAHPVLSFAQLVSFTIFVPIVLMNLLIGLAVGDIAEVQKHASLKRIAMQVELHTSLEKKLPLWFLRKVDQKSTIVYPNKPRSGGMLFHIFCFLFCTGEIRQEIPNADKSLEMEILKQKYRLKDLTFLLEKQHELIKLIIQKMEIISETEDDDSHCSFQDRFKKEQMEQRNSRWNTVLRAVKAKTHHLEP
# Sequence of TRPV4 (Q9HBA0 whole entry, species assumed): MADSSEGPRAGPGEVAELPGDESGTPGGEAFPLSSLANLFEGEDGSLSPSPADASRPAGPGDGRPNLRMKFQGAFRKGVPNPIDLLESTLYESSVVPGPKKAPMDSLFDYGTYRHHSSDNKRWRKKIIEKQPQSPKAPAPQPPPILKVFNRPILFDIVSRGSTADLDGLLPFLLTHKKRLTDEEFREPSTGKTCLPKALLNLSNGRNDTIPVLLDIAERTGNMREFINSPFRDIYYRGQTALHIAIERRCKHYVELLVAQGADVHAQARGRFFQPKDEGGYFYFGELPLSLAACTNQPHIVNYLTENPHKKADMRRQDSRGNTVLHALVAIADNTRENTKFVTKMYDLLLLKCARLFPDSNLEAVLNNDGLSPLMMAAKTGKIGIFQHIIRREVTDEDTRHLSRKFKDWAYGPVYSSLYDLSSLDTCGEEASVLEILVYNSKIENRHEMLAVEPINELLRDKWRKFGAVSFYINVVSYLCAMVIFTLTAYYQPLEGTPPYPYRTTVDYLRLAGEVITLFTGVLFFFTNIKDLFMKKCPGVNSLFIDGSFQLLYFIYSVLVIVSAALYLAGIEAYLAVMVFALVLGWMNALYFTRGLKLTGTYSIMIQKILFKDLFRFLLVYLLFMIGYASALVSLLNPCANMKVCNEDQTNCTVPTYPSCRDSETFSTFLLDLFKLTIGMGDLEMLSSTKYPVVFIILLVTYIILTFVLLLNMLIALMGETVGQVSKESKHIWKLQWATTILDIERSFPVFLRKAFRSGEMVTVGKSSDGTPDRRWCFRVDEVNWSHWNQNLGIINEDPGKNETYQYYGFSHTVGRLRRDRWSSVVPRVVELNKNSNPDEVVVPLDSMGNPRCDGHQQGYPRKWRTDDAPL
compound,measurement,setting,value
C=C1CC[C@@H]2[C@](C)(CO)[C@H](O)CC[C@@]2(C)[C@@H]1/C=C/C1=CC(C(C[C@@H]2C(=C)CC[C@@H]3[C@](C)(CO)[C@H](O)CC[C@]32C)C2=CCOC2=O)OC1=O (some centres unmarked) [Bisandrographolide A],Effect on TRPV4,TRPV4,Agonist
"CCCCCc1cc(O)c2c(c1)OC(C)(C)[C@@H]1CCC(C)=C[C@@H]21 [Tetrahydrocannabinol, tetrahydrocannabinol]",Effect on TRPA1,TRPA1,Agonist
same,Effect on TRPV2,TRPV2,Agonist
CC1CCC(C(C)C)C(O)C1 (centres unmarked) [menthol],Effect on TRPA1,TRPA1,Antagonist
same,"transepithelial current, Median","[1]; 200 μM menthol in 40 mM NH4^+, n=11, before −30.65",−34.21 μA · cm^−2
same,"transepithelial current, MV","[1]; 200 μM menthol in 40 mM NH4^+, n=11, before −30.99, washout −26.42",−36.34 μA · cm^−2
same,change of transepithelial current or voltage,"[1]; 200 μmol·l^−1 to 1 mmol·l^−1 added to solution containing ammonium, apical",further considerable rise in the transepithelial current
same,change of short-circuit current (Isc),"[1]; 1 mM menthol after 40 mM NH4Cl mucosal, FIG. 1 and 2, 13 measurements, three epithelia",further rise in that current; also recorded: statistically significant increase in the current across the epithelium
same,"transepithelial current, Median","[1]; 1 mM menthol in 40 mM NH4^+, n=12, before −22.76",−26.90 μA · cm^−2
same,"transepithelial current, MV","[1]; 1 mM menthol in 40 mM NH4^+, n=12, before −24.20, washout −20.88",−28.73 μA · cm^−2
same,influence on ammonium-induced conductivity / transport across rumen epithelium (profile in words),[1],significantly influenced
same,influence on the amount of E. coli in the feces,E. coli,no influence on the amount of E. coli in the feces
same,Effect on TRPM8,TRPM8,potent TRPM8 agonist
same,calcium transport across the rumen tissue compared to control group (100%),rumen epithelium [2],concentration-dependent increase in the calcium transport
same,Effect on TRPV3,TRPV3,nonspecific
Cc1ccc(C(C)C)c(O)c1 [thymol],"concentration with significant influence on pH, NH3 concentration and production of volatile fatty acids (VFA)",[3],≥ 500 mg/1
same,"influence on methane, ammonium, acetate and propionate production",bacteria flora,"no influence on the methane, ammonium, acetate and propionate production"
same,"transepithelial current, Median","[1]; 100 μM thymol in 40 mM NH4^+, n=4, before −19.30",−19.35 μA · cm^−2
same,"transepithelial current, MV","[1]; 100 μM thymol in 40 mM NH4^+, n=4, before −22.47, washout −15.82, p = 0.498",−22.19 μA · cm^−2
same,influence on ammonium-induced conductivity / transport across rumen epithelium (profile in words),[1],"inhibition, which can still be verified after washing out"
same,Ca flux across the rumen epithelium compared to starting value (100%),rumen epithelium [4],no significant long-term reduction of the calcium transport; also recorded: trend to increase the calcium resorption
same,effect on the bacteria flora in the ruminal fluid,[5],no effect on the bacteria flora in the ruminal fluid
same,Effect on TRPV3,TRPV3,TRPV3 agonist; also recorded: nonspecific
